Experimental data as given in patent US8030443B2, “Squamous cell carcinoma antigen-derived peptide binding to HLA-A24 molecule” (Kurume University, priority 2005, dated 2011).
Residues, ends and D or L forms follow the SMILES beside them.

Tested on: YES-2 (HLA-A24^+, SCCA^+) esophageal squamous cell carcinoma cells
Assay: 6-h 51Cr-release cytotoxicity assay of peptide-stimulated CTLs
Format: cell-based, human
From the text: Cultured cells in wells producing IFN-γ in response to a corresponding peptide were collected and further cultured with IL-2 alone for 10-14 days in order to obtain a sufficiently large number of cells to perform a standard 6-h ^51Cr-release assay. The following tumor cell lines were used as targets; YES-1 (HLA-A24^− and SCCA^+ esophageal squamous cell carcinoma), and YES-2 (HLA -A24^+ and SCCA^+ esophageal squamous cell carcinoma). Phytohemagglutinin (PHA)-stimulated blastoid T cells were also used as a negative control. In some experiments, 20 μg/ml of anti-HLA-class I (W6/32, IgG2a) (BioLegend, Camino Santa Fe, San Diego, Calif., USA), anti-HLA-class II (H-DR-1, IgG2a) (kindly provided by Dr. Yasuji NISHIMURA, KUMAMOTO UNIVERSITY, Japan), anti-CD4 (Nu-Th/i, IgG1) (established at Department of Immunology, Kurume University School of Medicine, Japan), or anti-CD8 (Nu-Ts/c, IgG2a) monoclonal antibody (mAb) (established at Department of Immunology, Kurume University School of Medicine, Japan) were added to the wells at the initiation of the assay. An anti-CD14 (JML-H14, IgG2a) mAb (established at Department of Immunology, Kurume University School of Medicine, Japan) was used as a negative control.

| SMILES | Cytotoxicity of peptide-stimulated CTLs/PBMCs (SCC patients (Pts 2, 5, 7, 8), targets YES-2, YES-1, PHA-stimulated T-cell blasts (FIG. 4B)) | Cytotoxicity of peptide-stimulated CTLs against YES-2 cells |
| --- | --- | --- |
| CC[C@H](C)[C@H](NC(=O)CNC(=O)[C@H](CC(C)C)NC(=O)[C@H](CC(C)C)NC(=O)[C@H](CCC(N)=O)NC(=O)[C@H](CCC(N)=O)NC(=O)[C@H](CCCNC(=N)N)NC(=O)[C@H](CC(C)C)NC(=O)[C@H](Cc1ccc(O)cc1)NC(=O)[C@@H](N)CCCNC(=N)N)C(=O)O [HIV peptide, RYLRQQLLGI, reference compound] (H-RYLRQQLLGI-OH) | did not show any cytotoxicity | – |
| CC(C)C[C@H](NC(=O)[C@H](Cc1ccc(O)cc1)NC(=O)[C@H](CCC(=O)O)NC(=O)[C@H](CCC(N)=O)NC(=O)[C@H](CC(C)C)NC(=O)[C@H](Cc1ccccc1)NC(=O)[C@H](CC(C)C)NC(=O)[C@H](Cc1ccc(O)cc1)NC(=O)[C@@H](N)[C@@H](C)O)C(=O)O [SCCA 112, TYLFLQEYL] (H-TYLFLQEYL-OH) | – | exhibited cytotoxicity against YES-2 cells in an HLA class I-restricted manner |
| CC(C)C[C@H](NC(=O)[C@H](CO)NC(=O)[C@H](C)NC(=O)[C@H](Cc1ccccc1)NC(=O)[C@H](Cc1c[nH]cn1)NC(=O)[C@H](Cc1ccccc1)NC(=O)[C@H](CO)NC(=O)[C@@H](NC(=O)[C@H](Cc1ccc(O)cc1)NC(=O)[C@@H](N)CCC(N)=O)[C@@H](C)O)C(=O)O [SCCA 215, QYTSFHFASL] (H-QYTSFHFASL-OH) | – | exhibited cytotoxicity against YES-2 cells in an HLA class I-restricted manner |
